Laboratory results: US11999727B2 (Tango Therapeutics, Inc., priority 2020, dated 2024)
Where two headings read alike, the source gives them in different places.

Columns and labels:
PRMT5 [1] = target: T1, PRMT5 (Homo sapiens, UniProt O14744); assay: PRMT5 biochemical IC50 assay with SAM as cofactor; settings: PRMT5, SAM as cofactor; read-out: SAM IC50
T1 construct: purchased Viva (custom protein)

PRMT5 [2] = target: T1, PRMT5; assay: PRMT5 biochemical IC50 assay with no cofactor; settings: PRMT5, no cofactor
Excerpt: Table 1 indicates IC50 values (μM) against PRMT5 for exemplary compounds in the presence of SAM as cofactor, with no cofactor, and with MTA as cofactor, respectively (columns 4-6). […] Ki values can be calculated from the IC50 values as described in the Examples section. As detailed in the Examples section, for the assay performed in the presence of SAM, IC50=Ki×1.5 (Ki=IC50/1.5).

PRMT5 [3] = target: T1, PRMT5; assay: PRMT5 biochemical IC50 assay with MTA as cofactor; settings: PRMT5, MTA as cofactor; read-out: MTA IC50
[4] = test system: HAP1 MTAP-intact cell line; assay: SDMA in-cell western assay, HAP1 MTAP-intact; format: cell-based; settings: HAP1 MTAP-intact, read-out: MTAP HAP1 intact IC50
Procedure, shortened: (§1)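 IC50 values come from SDMA signal quantified by in-cell western in two HAP1 lines, one with native MTAP levels and one lacking MTAP.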

[5] = test system: HAP1 MTAP-deleted cell line; assay: SDMA in-cell western assay, HAP1 MTAP-deleted; format: cell-based; settings: for IC50: HAP1 MTAP-deleted
Procedure, shortened: as §1

[6] = test system: HAP1 MTAP-deleted cell line; assay: Viability assay, MTAP-deleted cell line; format: cell-based; settings: read-out: HAP1 MTAP deleted viability
Excerpt: Table 1 additionally indicates IC50 values in a viability assay for the MTAP-deleted cell line (column 10), indicating the effect of treatment with compound on cell survival.

[7] = Homo sapiens, HAP1, SDMA in-cell western
[8] = Homo sapiens, HAP1, SDMA in-cell western, read-out: HAP1 MTAP deleted IC50
[9] = IC50 ratio HAP1 MTAP-intact / HAP1 MTAP-deleted, SDMA in-cell western
[10] = viability assay, MTAP-deleted cell line
[11] = read-out: No Cofactor/ rel IC50
[12] = Homo sapiens, HAP1, SDMA in-cell western, read-out: HAP 1 MTAP deleted IC50
[13] = Homo sapiens, HAP1, viability assay, MTAP-deleted cell line
[14] = IC50 ratio HAP1 MTAP-intact vs HAP1 MTAP-deleted, SDMA in-cell western

T1 sequence (O14744 whole entry): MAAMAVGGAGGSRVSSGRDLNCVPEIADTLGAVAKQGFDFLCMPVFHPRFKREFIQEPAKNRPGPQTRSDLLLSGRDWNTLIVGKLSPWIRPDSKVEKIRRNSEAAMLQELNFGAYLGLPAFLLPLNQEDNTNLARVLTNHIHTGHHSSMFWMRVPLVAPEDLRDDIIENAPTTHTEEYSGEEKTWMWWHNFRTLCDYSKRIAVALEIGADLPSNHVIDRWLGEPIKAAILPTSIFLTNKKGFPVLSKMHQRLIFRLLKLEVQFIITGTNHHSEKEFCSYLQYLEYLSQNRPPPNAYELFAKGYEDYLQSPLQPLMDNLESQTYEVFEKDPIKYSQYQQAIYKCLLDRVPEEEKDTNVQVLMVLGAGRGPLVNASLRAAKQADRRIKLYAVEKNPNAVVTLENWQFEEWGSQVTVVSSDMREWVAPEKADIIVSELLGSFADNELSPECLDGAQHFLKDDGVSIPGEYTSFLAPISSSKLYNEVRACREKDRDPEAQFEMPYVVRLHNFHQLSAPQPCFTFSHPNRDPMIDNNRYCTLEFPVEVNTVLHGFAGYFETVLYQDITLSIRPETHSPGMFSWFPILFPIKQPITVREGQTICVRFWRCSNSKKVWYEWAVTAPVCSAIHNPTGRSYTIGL
T1 sequence (Q9BQA1 whole entry partner): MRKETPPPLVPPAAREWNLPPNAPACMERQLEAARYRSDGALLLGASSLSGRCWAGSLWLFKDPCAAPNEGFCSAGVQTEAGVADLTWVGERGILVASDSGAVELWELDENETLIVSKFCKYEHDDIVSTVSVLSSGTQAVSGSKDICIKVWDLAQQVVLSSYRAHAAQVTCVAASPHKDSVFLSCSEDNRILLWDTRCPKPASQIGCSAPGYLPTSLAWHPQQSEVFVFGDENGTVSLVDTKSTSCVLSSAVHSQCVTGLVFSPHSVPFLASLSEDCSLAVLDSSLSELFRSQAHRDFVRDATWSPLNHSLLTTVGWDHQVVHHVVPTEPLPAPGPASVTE

Structure (SMILES) | IC50 (PRMT5 [1]) | IC50 (PRMT5 [2]; read-out: No Cofactor/rel IC50) | IC50 (PRMT5 [3]) | IC50 [4, 7] | IC50 [5, 8] | MTAP intact/deleted ratio [5, 9] | IC50 [6, 10] | IC50 (PRMT5 [2]; [11]) | IC50 [5, 12] | IC50 ([6]; Homo sapiens, HAP1, viability, HAP1 MTAP-deleted cell line) | IC50 [6, 13] | IC50 ([6]; Homo sapiens, HAP1, viability IC50, MTAP-deleted cell line) | MTAP intact/deleted ratio [5, 14] | IC50 ([4]; SDMA in-cell western) | IC50 ([5]; SDMA in-cell western, read-out: HAP 1 MTAP deleted IC50)
COc1ncc(NC(=O)C(=O)N2CCCCC2C2CCCC2)cc1C(N)=O (single isomer, unassigned) [Compound 294, 5-(2-(2-cyclopentylpiperidin-1-yl)-2-oxoacetamido)-2-methoxynicotinamide] | 50 to 500 nM | 50 to 500 nM | < 50 nM | > 1000 nM | < 100 nM | A (an IC50 ratio greater than or equal to 10 fold) | 1000 to 10000 nM | – | – | – | – | – | – | – | –
CCc1cc(NC(=O)C(=O)N2[C@@H](c3ccc4sc(C5CCN(C)CC5)nc4c3)CCC[C@@H]2C)cnc1N [Compound 1395] | 50 to 500 nM | – | < 50 nM | < 100 nM | – | A (an IC50 ratio greater than or equal to 10 fold) | – | < 50 nM | < 100 nM | < 1000 nM | – | – | – | – | –
C[C@@H]1CC[C@@H](c2ccc(NCC(F)(F)F)cc2)N(C(=O)C(=O)Nc2cncc(C(N)=O)c2)C1 (single isomer, unassigned) [Compound 455] | 50 to 500 nM | 50 to 500 nM | < 50 nM | > 1000 nM | 100 to 1000 nM | A (an IC50 ratio greater than or equal to 10 fold) | – | – | – | – | 1000 to 10000 nM | – | – | – | –
C[C@@H]1CC[C@@H](c2ccc(-c3cc[nH]n3)cc2)N(C(=O)C(=O)Nc2cncc(C(N)=O)c2)C1 (single isomer, unassigned) [Compound 627] | > 500 nM | > 500 nM | > 500 nM | > 1000 nM | – | A (an IC50 ratio greater than or equal to 10 fold) | – | – | 100 to 1000 nM | – | – | > 10000 nM | – | – | –
CCc1cc(NC(=O)C(=O)N2C[C@@H](C)CC[C@@H]2c2ccc(NC(C)=O)cc2)cnc1N (single isomer, unassigned) [Compound 890] | 50 to 500 nM | < 50 nM | < 50 nM | 100 to 1000 nM | – | A (an IC50 ratio greater than or equal to 10 fold) | – | – | < 100 nM | – | < 1000 nM | – | – | – | –
Cc1cc(NC(=O)C(=O)N2C[C@@H](C)CC[C@@H]2c2cccc(O)c2)cnc1N (racemic) [Compound 187, rac-N-(6-amino-5-methylpyridin-3-yl)-2-((2R,5S)-2-(3-hydroxyphenyl)-5-methylpiperidin-1-yl)-2-oxoacetamide] | 50 to 500 nM | 50 to 500 nM | < 50 nM | 100 to 1000 nM | < 100 nM | A (an IC50 ratio greater than or equal to 10 fold) | – | – | – | – | 1000 to 10000 nM | – | – | – | –
COc1ncc(NC(=O)C(=O)N2C[C@H](C)CC[C@H]2c2cncs2)cc1C(N)=O (single isomer, unassigned) [Compound 514] | > 500 nM | > 500 nM | > 500 nM | > 1000 nM | > 1000 nM | C (an IC50 ratio of less than 3 fold) | – | – | – | – | > 10000 nM | – | – | – | –
CCc1cc(NC(=O)C(=O)N2C[C@@H](C)CC[C@@H]2c2ccc3cn(C4CCN(C)CC4)nc3c2)cnc1N (racemic) [Compound 1096, N-(6-Amino-5-ethyl-3-pyridyl)-2-oxo-2-[rac-(2R,5S)-5-methyl-2-[2-(1-methyl-4-piperidyl)indazol-6-yl]-1-piperidyl]acetamide] | < 50 nM | < 50 nM | < 50 nM | < 100 nM | < 100 nM | – | – | – | – | – | < 1000 nM | – | A (an IC50 ratio greater than or equal to 10 fold) | – | –
Cc1ccc([C@@H]2CC(F)(F)[C@@H](C)CN2C(=O)C(=O)Nc2cnc(N)c(C)c2)cn1 (single isomer, unassigned) [Compound 944] | > 500 nM | > 500 nM | > 500 nM | > 1000 nM | – | C (an IC50 ratio of less than 3 fold) | – | – | > 1000 nM | – | > 10000 nM | – | – | – | –
C[C@H]1CC[C@H](c2cccs2)N(C(=O)C(=O)Nc2cncc(C(N)=O)c2)C1 (single isomer, unassigned) [Compound 198] | 50 to 500 nM | < 50 nM | < 50 nM | 100 to 1000 nM | < 100 nM | A (an IC50 ratio greater than or equal to 10 fold) | – | – | – | – | < 1000 nM | – | – | – | –
C[C@@H]1CC[C@@H](c2ccc(OC(F)F)cc2)N(C(=O)C(=O)Nc2cncc(C(N)=O)c2)C1 (racemic) [Compound 271, rac-5-{2-[(2R,5S)-2-[4-(Difluoromethoxy)phenyl]-5-methylpiperidin-1-yl]-2-oxoacetamido}pyridine-3-carboxamide] | 50 to 500 nM | 50 to 500 nM | < 50 nM | > 1000 nM | 100 to 1000 nM | A (an IC50 ratio greater than or equal to 10 fold) | – | – | – | – | 1000 to 10000 nM | – | – | – | –
Cc1ccc([C@H]2CC[C@H](C)CN2C(=O)C(=O)Nc2cncc(C(N)=O)c2)cc1Cl (single isomer, unassigned) [Compound 484] | 50 to 500 nM | 50 to 500 nM | < 50 nM | > 1000 nM | < 100 nM | A (an IC50 ratio greater than or equal to 10 fold) | – | – | – | – | 1000 to 10000 nM | – | – | – | –
Cc1cc(NC(=O)C(=O)N2C[C@H](C)CC[C@H]2c2cccc3scnc23)cnc1N (single isomer, unassigned) [Compound 960] | 50 to 500 nM | 50 to 500 nM | < 50 nM | > 1000 nM | – | A (an IC50 ratio greater than or equal to 10 fold) | – | – | 100 to 1000 nM | – | 1000 to 10000 nM | – | – | – | –
CCc1cc(NC(=O)C(=O)N2C[C@@H](C)CC[C@@H]2c2ccc3sc(C4CN(C)C4)nc3c2)cnc1N [Compound 1151, N-(6-amino-5-ethylpyridin-3-yl)-2-((2R,5S)-5-methyl-2-(2-(1-methylazetidin-3-yl)benzo[d]thiazol-5-yl)piperidin-1-yl)-2-oxoacetamide] | < 50 nM | < 50 nM | < 50 nM | < 100 nM | < 100 nM | – | – | – | – | – | < 1000 nM | – | A (an IC50 ratio greater than or equal to 10 fold) | – | –
CCc1cc(NC(=O)C(=O)N2C[C@@H](C)[C@H](OC)C[C@@H]2c2cccc(OCCN(C)C)c2)cnc1N (racemic) [Compound 1172, N-(6-amino-5-ethyl-3-pyridyl)-2-oxo-2-[rac-(2R,4R,5R)-2-[3-[2-(dimethylamino)ethoxy]phenyl]-4-methoxy-5-methyl-1-piperidyl]acetamide] | 50 to 500 nM | 50 to 500 nM | < 50 nM | 100 to 1000 nM | < 100 nM | – | – | – | – | – | < 1000 nM | – | A (an IC50 ratio greater than or equal to 10 fold) | – | –
CNc1ccc([C@@H]2CC[C@@H](C)CN2C(=O)C(=O)Nc2cncc(C(N)=O)c2)cn1 (single isomer, unassigned) [Compound 443] | 50 to 500 nM | < 50 nM | < 50 nM | > 1000 nM | < 100 nM | A (an IC50 ratio greater than or equal to 10 fold) | – | – | – | – | < 1000 nM | – | – | – | –
COc1ncc(NC(=O)C(=O)N2C[C@@H](C)CC[C@@H]2c2ccc3sc(C4(CN(C)C)CC4)nc3c2)cc1C(N)=O (single isomer, unassigned) [Compound 1109] | < 50 nM | < 50 nM | < 50 nM | 100 to 1000 nM | < 100 nM | – | – | – | – | – | < 1000 nM | – | A (an IC50 ratio greater than or equal to 10 fold) | – | –
Cc1cc(NC(=O)C(=O)N2CC(C)(C)CCC2c2ccccc2)cnc1N (single isomer, unassigned) [Compound 58, N-(6-amino-5-methylpyridin-3-yl)-2-(5,5-dimethyl-2-phenylpiperidin-1-yl)-2-oxoacetamide] | > 500 nM | – | > 500 nM | – | – | C (an IC50 ratio of less than 3 fold) | > 10000 nM | > 500 nM | – | – | – | – | – | > 1000 nM | > 1000 nM
Cc1cc([C@H]2CC[C@H](C)CN2C(=O)C(=O)Nc2cncc(C(N)=O)c2)ccc1F (single isomer, unassigned) [Compound 293] | < 50 nM | 50 to 500 nM | < 50 nM | > 1000 nM | < 100 nM | A (an IC50 ratio greater than or equal to 10 fold) | – | – | – | – | 1000 to 10000 nM | – | – | – | –
